Patent US10336762B2 (priority 2017, dated 2019)
Like-named read-outs stand apart in the source and are kept apart here.

Columns and labels:
[1] = system: TNFα; experiment: cells; assay type: cell-based, human; settings: Homo sapiens, Monocyte, LPS-stimulated human monocytes, read-out: EC50 TNF
[2] = biological target: IRAK4 enzyme (Homo sapiens (Human), UniProt Q9NWZ3); experiment: biochemical; assay type: biochemical; settings: IRAK4 enzyme, 500 μM ATP
Sequence of IRAK4 enzyme (Q9NWZ3 whole entry): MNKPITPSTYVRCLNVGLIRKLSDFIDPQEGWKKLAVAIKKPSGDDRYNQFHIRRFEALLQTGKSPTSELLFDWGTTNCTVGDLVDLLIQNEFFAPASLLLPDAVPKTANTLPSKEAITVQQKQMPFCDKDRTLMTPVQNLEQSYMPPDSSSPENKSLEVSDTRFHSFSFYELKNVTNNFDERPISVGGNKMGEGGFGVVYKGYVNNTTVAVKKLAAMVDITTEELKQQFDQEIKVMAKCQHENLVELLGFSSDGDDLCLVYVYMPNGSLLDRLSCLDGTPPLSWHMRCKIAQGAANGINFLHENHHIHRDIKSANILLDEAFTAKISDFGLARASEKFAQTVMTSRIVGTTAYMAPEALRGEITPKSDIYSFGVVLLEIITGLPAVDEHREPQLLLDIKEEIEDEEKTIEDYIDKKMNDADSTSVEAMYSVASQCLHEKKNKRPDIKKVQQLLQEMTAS

With `CC(C)(O)[C@H](F)CNC(=O)c1cnc(-c2ccc3cc(C#N)cnn23)cc1Nc1ccc2ncsc2c1` [Example 572, (R)-4-(benzo[d]thiazol-6-ylamino)-6-(3-cyano-pyrrolo[1,2-b]pyridazin-7-yl)-N-(2-fluoro-3-hydroxy-3-methylbutyl)nicotinamide] the EC50 ([1]; TNFα content) was 66 nM and the IC50 ([2]; TR-FRET (HTRF)) was under 1 nM.
Compound `CC(C)(O)[C@H](F)CNC(=O)c1cnc(-c2ccc3cc(C#N)cnn23)cc1N[C@H]1C[C@H](Oc2ccccc2)C1` [Example 708, 6-(3-cyanopyrrolo[1,2-b]pyridazin-7-yl)-N-((R)-2-fluoro-3-hydroxy-3-methylbutyl)-4-(((1r,3R)-3-phenoxycyclobutyl)amino) nicotinamide] has an EC50 ([1]; TNFα content) of 57 nM and an IC50 ([2]; TR-FRET (HTRF)) of 1 nM.
Work on `CC(=O)N[C@@H]1CC[C@H](Nc2cc(-c3ccc4cc(C#N)cnn34)ncc2C(=O)NC[C@@H](F)C(C)(C)O)C1` [Example 312, 4-(((1S,3R)-3-acetamidocyclopentyl)amino)-6-(3-cyano-pyrrolo[1,2-b]pyridazin-7-yl)-N-((R)-2-fluoro-3-hydroxy-3-methylbutyl) nicotinamide] yielded an EC50 ([1]; TNFα content) of 198 nM and an IC50 ([2]; TR-FRET) of 2 nM.
`CC(C)(O)[C@H](F)CNC(=O)c1cnc(-c2ccc3cc(C#N)cnn23)cc1N[C@H]1C[C@H](CNC(=O)C23CC(C2)C3)C1` [Example 937, 4-(((1r,3R)-3-((bicyclo[1.1.1]pentane-1-carboxamido)methyl)cyclobutyl)amino)-6-(3-cyanopyrrolo[1,2-b]pyridazin-7-yl)-N-((R)-2-fluoro-3-hydroxy-3-methylbutyl)nicotinamide] was tested, and the EC50 ([1]; TNFα by TR-FRET) was 133 nM and the IC50 ([2]; TR-FRET) was 2 nM.
With `CC(C)(O)[C@H](F)CNC(=O)c1cnc(-c2ccc3cc(C#N)cnn23)cc1Nc1ccc(-c2cnoc2)nc1` [Example 967, (R)-6-(3-cyanopyrrolo[1,2-b]pyridazin-7-yl)-N-(2-fluoro-3-hydroxy-3-methylbutyl)-4-((6-(isoxazol-4-yl)pyridin-3-yl)amino) nicotinamide] the EC50 ([1]; TNFα by TR-FRET) was 156 nM and the IC50 ([2]; TR-FRET) was 3 nM.
`CC(C)(O)[C@H](F)CNC(=O)c1cnc(-c2ccc3cc(C#N)cnn23)cc1Nc1cnn(CC(F)(F)F)c1` [Example 49, (R)-6-(3-cyanopyrrolo[1,2-b]pyridazin-7-yl)-N-(2-fluoro-3-hydroxy-3-methylbutyl)-4-((1-(2,2,2-trifluoroethyl)-1H-pyrazol-4-yl)amino)nicotinamide] gave an EC50 ([1]; TNFα content) of 8 nM and an IC50 ([2]; TR-FRET) of under 1 nM.
`CCC(=O)N[C@H]1CC[C@H](Nc2cc(-c3ccc4cc(C#N)cnn34)ncc2C(=O)NC[C@@H](F)C(C)(C)O)CC1` [Example 299, 6-(3-cyanopyrrolo[1,2-b]pyridazin-7-yl)-N-((R)-2-fluoro-3-hydroxy-3-methyl-butyl)-4-(((1r,4R)-4-propionamidocyclohexyl)amino)nicotinamide] gave an EC50 ([1]; TNFα content) of 128 nM and an IC50 ([2]; TR-FRET) of 1 nM.
`CC(C)(O)[C@H](F)CNC(=O)c1cnc(-c2ccc3cc(C#N)cnn23)cc1NC1CNC(=O)C1` (stereo partly drawn) [Example 8, 6-(3-cyanopyrrolo[1,2-b]pyridazin-7-yl)-N-((R)-2-fluoro-3-hydroxy-3-methylbutyl)-4-((5-oxopyrrolidin-3-yl)amino)nicotinamide] was tested, and the EC50 ([1]; TNFα content) was 774 nM and the IC50 ([2]; TR-FRET) was under 1 nM.
In the case of `CC(C)(O)[C@H](F)CNC(=O)c1cnc(-c2ccc3cc(C#N)cnn23)cc1Nc1ccc(-c2c[nH]cn2)cc1` [Example 234, (R)-4-((4-(1H-imidazol-4-yl)phenyl)amino)-6-(3-cyanopyrrolo[1,2-b]pyridazin-7-yl)-N-(2-fluoro-3-hydroxy-3-methylbutyl) nicotinamide], the EC50 ([1]; TNFα content) is reported as 33 nM and the IC50 ([2]; TR-FRET) is reported as under 1 nM.
Compound `CC(C)(O)[C@H](F)CNC(=O)c1cnc(-c2ccc3cc(C#N)cnn23)cc1N[C@H]1C[C@](C)(O)C1` [Example 446, 6-(3-cyanopyrrolo[1,2-b]pyridazin-7-yl)-N-((R)-2-fluoro-3-hydroxy-3-methylbutyl)-4-(((1r,3R)-3-hydroxy-3-methylcyclobutyl)amino) nicotinamide] has an EC50 ([1]; TNFα content) of 63 nM and an IC50 ([2]; TR-FRET (HTRF)) of 1 nM.
`CC(=O)NC12CC(Nc3cc(-c4ccc5cc(C#N)cnn45)ncc3C(=O)NCC(F)(F)F)(C1)C2` [Example 277, 4-((3-acetamido-bicyclo[1.1.1]pentan-1-yl)amino)-6-(3-cyano-pyrrolo[1,2-b]pyridazin-7-yl)-N-(2,2,2-trifluoroethyl) nicotinamide] was tested, and the EC50 ([1]; TNFα content) was 383 nM and the IC50 ([2]; TR-FRET) was 5 nM.
With `CC(C)(O)[C@H](F)CNC(=O)c1cnc(-c2ccc3cc(C#N)cnn23)cc1Nc1cnc(N2CCC2)nc1` [Example 681, (R)-4-((2-(azetidin-1-yl)pyrimidin-5-yl)amino)-6-(3-cyanopyrrolo[1,2-b]pyridazin-7-yl)-N-(2-fluoro-3-hydroxy-3-methylbutyl) nicotinamide] the EC50 ([1]; TNFα content) was 6 nM and the IC50 ([2]; TR-FRET (HTRF)) was under 1 nM.
In the case of `N#Cc1cnn2c(-c3cc(N[C@H]4CCC[C@@H](O)C4)c(C(=O)NC4CC4(F)F)cn3)ccc2c1` (stereo partly drawn) [Example 430, 6-(3-cyanopyrrolo[1,2-b]pyridazin-7-yl)-N-(2,2-difluorocyclopropyl)-4-(((1S,3R)-3-hydroxy-cyclohexyl)amino) nicotinamide], the EC50 ([1]; TNFα content) is reported as 488 nM and the IC50 ([2]; TR-FRET (HTRF)) is reported as 14 nM.
`N#CCNC(=O)c1cnc(-c2ccc3cc(C#N)cnn23)cc1NC1CC2(CC(O)C2)C1` (stereo not shown) [Example 453, N-(cyanomethyl)-6-(3-cyanopyrrolo[1,2-b]pyridazin-7-yl)-4-((6-hydroxyspiro[3.3]heptan-2-yl)amino) nicotinamide] showed an EC50 ([1]; TNFα content) of 68 nM and an IC50 ([2]; TR-FRET (HTRF)) of under 1 nM.
`CN1CCOc2cc(Nc3cc(-c4ccc5cc(C#N)cnn45)ncc3C(=O)NC[C@@H](F)C(C)(C)O)ccc21` [Example 854, (R)-6-(3-cyanopyrrolo[1,2-b]pyridazin-7-yl)-N-(2-fluoro-3-hydroxy-3-methylbutyl)-4-((4-methyl-3,4-dihydro-2H-benzo[b] [1,4]oxazin-7-yl)amino)nicotinamide] was tested, and the EC50 ([1]; TNFα by TR-FRET) was 10 nM and the IC50 ([2]; TR-FRET) was 1 nM.
Compound `CC(C)Nc1cc(-c2ccc3cc(C#N)cnn23)ncc1C(=O)N[C@H]1CC[C@H](NC(=O)N2CCOCC2)CC1` [Example 126, N-((1r,4r)-4-(6-(3-cyano-pyrrolo[1,2-b]pyridazin-7-yl)-4-(isopropylamino)nicotinamido)cyclohexyl) morpholine-4-carboxamide] has an EC50 ([1]; TNFα content) of 92 nM and an IC50 ([2]; TR-FRET) of 1 nM.
Compound `CCOc1cc(Nc2cc(-c3ccc4cc(C#N)cnn34)ncc2C(=O)NC[C@@H](F)C(C)(C)O)cnc1-c1cnco1` [Example 635, (R)-6-(3-cyanopyrrolo[1,2-b]pyridazin-7-yl)-4-((5-ethoxy-6-(oxazol-5-yl)pyridin-3-yl)amino)-N-(2-fluoro-3-hydroxy-3-methylbutyl)nicotinamide] has an EC50 ([1]; TNFα content) of over 10000 nM and an IC50 ([2]; TR-FRET (HTRF)) of 8 nM.
`CC(C)Nc1cc(-c2ccc3cc(C#N)cnn23)ncc1C(=O)NCC(F)(F)CN` [Example 552, N-(3-amino-2,2-difluoro-propyl)-6-(3-cyano-pyrrolo[1,2-b]pyridazin-7-yl)-4-(isopropyl-amino)nicotinamide] showed an EC50 ([1]; TNFα content) of 1160 nM and an IC50 ([2]; TR-FRET (HTRF)) of 7 nM.
`CC(C)(O)[C@H](F)CNC(=O)c1cnc(-c2ccc3cc(C#N)cnn23)cc1Nc1cccc(-c2cnc[nH]2)c1` [Example 219, (R)-4-((3-(1H-imidazol-5-yl)phenyl)amino)-6-(3-cyanopyrrolo[1,2-b]pyridazin-7-yl)-N-(2-fluoro-3-hydroxy-3-methylbutyl)nicotinamide] showed an EC50 ([1]; TNFα content) of 209 nM and an IC50 ([2]; TR-FRET) of 1 nM.
Work on `CC(C)(O)[C@H](F)CNC(=O)c1cnc(-c2ccc3cc(C#N)cnn23)cc1Nc1ccc(-n2cnnc2)cc1` [Example 772, (R)-4-((4-(4H-1,2,4-triazol-4-yl)phenyl)amino)-6-(3-cyanopyrrolo[1,2-b]pyridazin-7-yl)-N-(2-fluoro-3-hydroxy-3-methylbutyl)nicotinamide] yielded an EC50 ([1]; TNFα content) of 14 nM and an IC50 ([2]; TR-FRET (HTRF)) of under 1 nM.
`N#CCNC(=O)c1cnc(-c2ccc3cc(C#N)cnn23)cc1Nc1cnn([C@H]2CCNC2)c1` [Example 896, (S)-N-(cyanomethyl)-6-(3-cyanopyrrolo[1,2-b]pyridazin-7-yl)-4-((1-(pyrrolidin-3-yl)-1H-pyrazol-4-yl)amino) nicotinamide] showed an EC50 ([1]; TNFα by TR-FRET) of 48 nM and an IC50 ([2]; TR-FRET) of under 1 nM.
For `CC(C)(O)[C@H](F)CNC(=O)c1cnc(-c2ccc3cc(C#N)cnn23)cc1Nc1ccc(-c2nncs2)cc1` [Example 771, (R)-4-((4-(1,3,4-thiadiazol-2-yl)phenyl)amino)-6-(3-cyanopyrrolo[1,2-b]pyridazin-7-yl)-N-(2-fluoro-3-hydroxy-3-methylbutyl)nicotinamide], the EC50 ([1]; TNFα content) was 37 nM and the IC50 ([2]; TR-FRET (HTRF)) was under 1 nM.
`CC(C)Nc1cc(-c2ccc3cc(C#N)cnn23)ncc1C(=O)NC[C@@H](F)C1(O)CC1` [Example 643, (R)-6-(3-cyanopyrrolo[1,2-b]pyridazin-7-yl)-N-(2-fluoro-2-(1-hydroxycyclo-propyl)ethyl)-4-(isopropyl-amino)nicotinamide] was tested, and the EC50 ([1]; TNFα content) was 8 nM and the IC50 ([2]; TR-FRET (HTRF)) was under 1 nM.
`CC(C)(O)[C@H](F)CNC(=O)c1cnc(-c2ccc3cc(C#N)cnn23)cc1N[C@H]1CCOC1` [Example 195, 6-(3-cyanopyrrolo[1,2-b]pyridazin-7-yl)-N-((R)-2-fluoro-3-hydroxy-3-methylbutyl)-4-(((S)-tetrahydrofuran-3-yl)amino)nicotinamide] showed an EC50 ([1]; TNFα content) of 37 nM and an IC50 ([2]; TR-FRET) of under 1 nM.
`CC(C)(O)[C@H](F)CNC(=O)c1cnc(-c2ccc3cc(C#N)cnn23)cc1Nc1ccc(CC#N)nc1` [Example 678, (R)-4-((6-(cyanomethyl)pyridin-3-yl)amino)-6-(3-cyanopyrrolo[1,2-b]pyridazin-7-yl)-N-(2-fluoro-3-hydroxy-3-methylbutyl)nicotinamide] gave an EC50 ([1]; TNFα content) of 9 nM and an IC50 ([2]; TR-FRET (HTRF)) of under 1 nM.
For `COCCOc1ncc(Nc2cc(-c3ccc4cc(C#N)cnn34)ncc2C(=O)NC[C@@H](F)C(C)(C)O)cn1` [Example 663, (R)-6-(3-cyanopyrrolo[1,2-b]pyridazin-7-yl)-N-(2-fluoro-3-hydroxy-3-methylbutyl)-4-((2-(2-methoxyethoxy)pyrimidin-5-yl)amino)nicotinamide], the EC50 ([1]; TNFα content) was 52 nM and the IC50 ([2]; TR-FRET (HTRF)) was under 1 nM.
